One assay deals with T1, IL-23R (Homo sapiens, UniProt Q5VWK5).
T1 construct: HEK293 cells containing IL-23R, IL-12Rβ1 and a firefly luciferase reporter gene driven by a STAT-inducible promoter (Promega); host or cells: HEK293
T1 sequence (Q5VWK5 24-629): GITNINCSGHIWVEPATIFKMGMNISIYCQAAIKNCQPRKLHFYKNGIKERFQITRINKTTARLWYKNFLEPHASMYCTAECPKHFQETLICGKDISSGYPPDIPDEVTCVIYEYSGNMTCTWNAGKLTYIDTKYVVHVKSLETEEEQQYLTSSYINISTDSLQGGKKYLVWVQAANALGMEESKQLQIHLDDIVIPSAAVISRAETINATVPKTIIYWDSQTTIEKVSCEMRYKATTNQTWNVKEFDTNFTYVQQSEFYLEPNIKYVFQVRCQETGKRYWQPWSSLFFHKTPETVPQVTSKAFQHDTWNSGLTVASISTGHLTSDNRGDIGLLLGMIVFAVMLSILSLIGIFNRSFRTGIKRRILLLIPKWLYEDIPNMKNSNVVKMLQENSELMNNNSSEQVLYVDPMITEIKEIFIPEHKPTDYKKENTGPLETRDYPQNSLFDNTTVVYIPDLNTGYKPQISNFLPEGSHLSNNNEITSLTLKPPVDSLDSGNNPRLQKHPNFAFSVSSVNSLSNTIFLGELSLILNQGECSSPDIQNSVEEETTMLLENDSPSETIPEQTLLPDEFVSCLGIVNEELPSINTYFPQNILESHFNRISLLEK
Nature of the assay: IL23R Reporter Assay. Type of assay: cell-based. As to conditions: HEK293 cells containing IL-23R, IL-12Rβ1 and STAT-inducible firefly luciferase reporter; 10 ng/mL IL-23 (EC90); 5 h. The method, boiled down: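 IC50 values were fitted with a 4-parameter Hill equation to luciferase signal, scaled between IL-23-only wells (0% inhibition) and 30 μM reference inhibitor (100%). The readout was a STAT-inducible reporter in IL-23R/IL-12Rβ1 HEK293 cells, stimulated with added 10 ng/mL IL-23 (EC90) for 5 h at 37° C and developed with BioGlo.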
On the technique in general: Reporter assays use an easily measured gene product as a stand-in for the process of interest.

Assay [1] deals with IL-23-stimulated phosphorylated STAT3 in peripheral blood mononuclear cells (PBMCs). Put plainly: PBMC pSTAT3 Assay. Type of assay: cell-based. As to conditions: PBMCs from healthy donors; 30 min preincubation with peptide; IL-23 5 ng/mL for 30 min; phospho-STAT3 by MSD. The method, boiled down: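 Phospho-STAT3 quantified by Meso Scale assay in lysates of PBMCs exposed to IL-23 (5 ng/mL, 30 min, 37 °C) after 30 min peptide pretreatment. Cells were cryopreserved donor PBMCs activated 4 days with anti-CD3 plus IL-1β (100 ng/mL) and starved ~4 h; IC50 reported.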

pIC50: −log10 of the molar value. *1 amine or outer side, *2 acyl side, *3 side chain or, on linkers, in order; H or OH if unused. Where a SMILES comes first, the peptide text is derived from it. Bridges are numbered along the chain shown (N, C = ends). Side-chain parts run from the residue outwards. [ ]: non-standard residue; d: D form. The star is where a group is joined. ξ: configuration not given here. PEG12 = NCCOCCOCCOCCOCCOCCOCCOCCOCCOCCOCCOCCOCCC(=O)O; X24 = O=C(O)CCCCCCCCCCCCCCCCCN[C@@H](CCC(=O)*)C(=O)O; CH2CH2OCH2CH2OCH2CH2NMe3+ = C[N+](C)(C)CCOCCOCC*; Biotin = O=C1N[C@H]2[C@H](CS[C@H]2CCCCC(=O)*)N1; Trp(7-Me) = Cc1cccc2c(C[C@H](N)C(=O)O)c[nH]c12; C20 diacid = O=C(O)CCCCCCCCCCCCCCCCCCC(=O)*; Hexanoyl(6-NMe3+) = C[N+](C)(C)CCCCCC(=O)*; C18 diacid = O=C(O)CCCCCCCCCCCCCCCCC(=O)*; γGlu = O=C(O)[C@H](CCC(=O)[*:2])N[*:1]; 2Nal = N[C@@H](Cc1ccc2ccccc2c1)C(=O)O; AEF = NCCOc1ccc(C[C@H](N)C(=O)O)cc1; αMeT = C[C@@H](O)[C@](C)(N)C(=O)O; 3Pal = N[C@@H](Cc1cccnc1)C(=O)O; Lys(Me) = CNCCCC[C@H](N)C(=O)O; PEG4 = NCCOCCOCCOCCOCCC(=O)O; Pen = CC(C)(S)[C@H](N)C(=O)O; Thp = NC1(C(=O)O)CCOCC1; ξN = NC(=O)CC(N)C(=O)O; AEEA = NCCOCCOCC(=O)O; Sar = CNCC(=O)O

For orientation: pIC50 means the negative decadic logarithm of the IC50, by convention in mol/L.

For `C=C(N[C@@H](CC(N)=O)C(=O)N[C@@H](CC)C(C)N(C)CC(=O)N(C)C)[C@H](CCCCN(C)C(C)=O)NC(=O)C1(NC(=O)[C@H](Cc2ccc3ccccc3c2)NC(=O)[C@H](Cc2ccc(OCCCCC[N+](C)(C)C)cc2)NCC2NC(=O)[C@H](CCCCNC(=O)COCCOCCNC(=O)COCCOCCNC(=O)CC[C@H](NC(=O)CCCCCCCCCCCCCCCCCCC(=O)O)C(=O)O)NC(=O)[C@H](CC3=CCc4c(C)cccc43)NC(=O)[C@H]([C@@H](C)O)NC(=O)[C@H](CC(=O)N(C)C)NC(=O)[C@@H](NC(=O)CCOCCOCC[N+](C)(C)C)C(C)(C)SSC2(C)C)CCCCC1` (stereo partly drawn) [compound 127, cPEG3aCO-Pen(3)-N(N(Me)2)-T-7MeW-K(PEG2PEG2gEC20OH)-Pen(3)-TMAPF-2Nal-THP-K(NMeAc)-N-3Pya-Sar-CON(Me)2], the pIC50 at IL-23R was 6.30 to 7.30; in assay [1] it was 8.30 to 9.30.
For the compound `CC(=O)NCCCC[C@@H]1NC(=O)[C@H](Cc2c[nH]c3c(C)cccc23)NC(=O)[C@H]([C@@H](C)O)NC(=O)[C@H](CC(N)=O)NC(=O)[C@@H](NC(=O)[C@@H](CCCNC(=N)N)NC(C)=O)C(C)(C)SSC(C)(C)[C@@H](C(=O)N[C@@H](Cc2ccc(OCCN)cc2)C(=O)N[C@@H](Cc2ccc3ccccc3c2)C(=O)NC2(C(=O)N[C@@H](CCC(=O)O)C(=O)N[C@@H](CC(N)=O)C(=O)N[C@@H](Cc3cccnc3)C(=O)N(C)CC(=O)N[C@@H](CCCCNC(=O)CCOCCOCCOCCOCCOCCOCCOCCOCCOCCOCCOCCOCCNC(=O)CC[C@H](NC(=O)CCCCCCCCCCCCCCCCCCC(=O)O)C(=O)O)C(N)=O)CCOCC2)NC1=O` [compound 134, MeCO-r-Pen(3)-N-T-7MeW-K(Ac)-Pen(3)-AEF-2Nal-THP-E-N-3Pya-Sar-K(PEG12gEC20OH)-CONH2] (Ac-[dR][Pen]NT[Trp(7-Me)]K(Ac)[Pen][AEF][2Nal][Thp]EN[3Pal][Sar]K([PEG12-γGlu-C20 diacid])-NH2; disulfide 2-7), the pIC50 against IL-23R was greater than 7.30; in assay [1] it was greater than 9.30.
Consider `CC(=O)N(C)CCCC[C@@H]1NC(=O)[C@H](Cc2c[nH]c3c(C)cccc23)NC(=O)[C@H]([C@@H](C)O)NC(=O)[C@H](CC(=O)N(C)C)NC(=O)[C@@H](NC(=O)COCCOCCNC(=O)COCCOCCNC(=O)CC[C@H](NC(=O)CCCCCCCCCCCCCCCCCCC(=O)O)C(=O)O)C(C)(C)SSC(C)(C)[C@@H](C(=O)N[C@@H](Cc2ccc(OCCOCCOCC[N+](C)(C)C)cc2)C(=O)N[C@@H](Cc2ccc3ccccc3c2)C(=O)NC2(C(=O)N[C@@H](CCCCN(C)C(C)=O)C(=O)N[C@@H](CC(N)=O)C(=O)N[C@@H](Cc3cccnc3)C(=O)N(C)CC(=O)N(C)C)CCOCC2)NC1=O` [compound 110, HOC20gEPEG2PEG2CO-Pen(3)-N(N(Me)2)-T-7MeW-K(NMeAc)-Pen(3)-APEG3F-2Nal-THP-K(NMeAc)-N-3Pya-Sar-CON(Me)2] ({C20 diacid-γGlu-AEEA-AEEA}-[Pen]D(NMe2)T[Trp(7-Me)][Lys(Me)](Ac)[Pen]Y(CH2CH2OCH2CH2OCH2CH2NMe3+)[2Nal][Thp][Lys(Me)](Ac)N[3Pal][Sar]-NMe2; disulfide 1-6), for which the results for the pIC50 (against IL-23R; in assay [1]) were 6.30 to 7.30 and greater than 9.30, respectively.
Consider `Cc1cccc2c(C[C@@H]3NC(=O)[C@H]([C@@H](C)O)NC(=O)[C@H](CC(N)=O)NC(=O)[C@@H](NC(=O)[C@@H](CCCNC(=N)N)NC(=O)CCCCC[N+](C)(C)C)C(C)(C)SSC(C)(C)[C@@H](C(=O)N[C@@H](Cc4ccc(OCCN)cc4)C(=O)N[C@@H](Cc4ccc5ccccc5c4)C(=O)NC4(C(=O)N[C@@H](CCC(=O)O)C(=O)N[C@@H](CC(N)=O)C(=O)N[C@@H](Cc5cccnc5)C(=O)N(C)CC(N)=O)CCOCC4)NC(=O)[C@H](CCCCNC(=O)COCCOCCNC(=O)COCCOCCNC(=O)CC[C@H](NCCCCCCCCCCCCCCCCCC(=O)O)C(=O)O)NC3=O)c[nH]c12` [compound 71, 5cpaCO-r-Pen(3)-N-T-7MeW-K(PEG2PEG2C18OH)-Pen(3)-AEF-2Nal-THP-E-N-3Pya-Sar-CONH2] ({Hexanoyl(6-NMe3+)}-[dR][Pen]NT[Trp(7-Me)]K([AEEA-AEEA-X24])[Pen][AEF][2Nal][Thp]EN[3Pal][Sar]-NH2; disulfide 2-7), for which the figures for the pIC50 (at IL-23R; in assay [1]) were 6.30 to 7.30 and greater than 9.30, respectively.
Regarding `CC(=O)NCCCC[C@@H]1NC(=O)[C@H](Cc2c[nH]c3c(C)cccc23)NC(=O)[C@](C)([C@@H](C)O)NC(=O)C(CC(N)=O)NC(=O)[C@@H](NC(=O)[C@@H](CCCNC(=N)N)NC(C)=O)C(C)(C)SSC(C)(C)[C@@H](C(=O)N[C@@H](Cc2ccc(OCCN)cc2)C(=O)N[C@@H](Cc2ccc3ccccc3c2)C(=O)NC2(C(=O)N[C@@H](CCCCNC(=O)CCOCCOCCOCCOCCNC(=O)CCCC[C@@H]3SC[C@@H]4NC(=O)N[C@@H]43)C(=O)N[C@@H](CC(N)=O)C(=O)N[C@@H](Cc3cccnc3)C(=O)N(C)CC(=O)N[C@@H](CCCCNC(=O)COCCOCCNC(=O)COCCOCCNC(=O)CC[C@H](NC(=O)CCCCCCCCCCCCCCCCC(=O)O)C(=O)O)C(N)=O)CCOCC2)NC1=O` (stereo partly drawn) [compound 56, MeCO-r-Pen(3)-N-T-7MeW-K(Ac)-Pen(3)-AEF-2Nal-THP-K(BiotinPEG4)-N-3Pya-Sar-K(PEG2PEG2gEC18OH)-CONH2] (Ac-[dR][Pen][ξN][αMeT][Trp(7-Me)]K(Ac)[Pen][AEF][2Nal][Thp]K([PEG4-Biotin])N[3Pal][Sar]K([AEEA-AEEA-γGlu-C18 diacid])-NH2; disulfide 2-7), the pIC50 against IL-23R was greater than 7.30; in assay [1] it was greater than 9.30.
